In general, IC50 refers to the concentration that gives 50% inhibition. One may read the Papp A→B as how fast a substance crosses the layer from the apical side.

The nature of data set [1]: Intrinsic clearance in mouse liver microsomes assessed per mg protein in presence of NADPH by UPLC analysis. The format is ADME, Microsome. To be noted: read-out: CLH. A general note: Liver microsomes are vesicles of endoplasmic reticulum, rich in cytochrome P450 enzymes.
In data set [2] the target is Poly [ADP-ribose] polymerase 2 (Homo sapiens, UniProt Q9UGN5). As to the kind of experiment: Inhibition of N-terminal GST-tagged recombinant human PARP2 (2 to 583 residues) expressed in Baculovirus infected Sf9 cells using biotinylated substrate after 1 hr by chemiluminescence method.
Data set [3] concerns the target T1, Protein mono-ADP-ribosyltransferase PARP8 (Homo sapiens, UniProt Q8N3A8).
T1 sequence (Q8N3A8 whole entry): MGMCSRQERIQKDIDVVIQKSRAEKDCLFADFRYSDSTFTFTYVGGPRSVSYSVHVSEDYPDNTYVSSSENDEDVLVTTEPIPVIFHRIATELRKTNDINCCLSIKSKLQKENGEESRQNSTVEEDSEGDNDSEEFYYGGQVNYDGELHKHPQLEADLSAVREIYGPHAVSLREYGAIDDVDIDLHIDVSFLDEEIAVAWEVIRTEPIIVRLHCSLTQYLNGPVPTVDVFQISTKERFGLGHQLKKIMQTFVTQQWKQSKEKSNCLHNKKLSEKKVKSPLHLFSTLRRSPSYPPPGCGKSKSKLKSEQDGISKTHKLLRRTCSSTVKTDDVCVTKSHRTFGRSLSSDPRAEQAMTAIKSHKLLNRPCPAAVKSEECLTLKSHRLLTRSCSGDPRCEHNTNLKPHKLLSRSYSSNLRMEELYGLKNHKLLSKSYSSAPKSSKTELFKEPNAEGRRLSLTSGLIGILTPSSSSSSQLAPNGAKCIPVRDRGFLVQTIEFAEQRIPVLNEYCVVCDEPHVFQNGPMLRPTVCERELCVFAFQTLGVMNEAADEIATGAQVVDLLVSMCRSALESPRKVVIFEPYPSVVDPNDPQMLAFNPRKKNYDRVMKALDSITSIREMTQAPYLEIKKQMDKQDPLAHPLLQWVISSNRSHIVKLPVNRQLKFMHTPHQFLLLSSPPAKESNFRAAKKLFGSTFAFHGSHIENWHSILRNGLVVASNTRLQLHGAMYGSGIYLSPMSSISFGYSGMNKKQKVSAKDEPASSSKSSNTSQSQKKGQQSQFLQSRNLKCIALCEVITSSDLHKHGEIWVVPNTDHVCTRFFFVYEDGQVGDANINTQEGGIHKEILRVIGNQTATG
In words: Inhibition of human recombinant PARP8 by chemiluminescence method.

In data set [4] the target is T2, Protein mono-ADP-ribosyltransferase PARP10 (Homo sapiens, UniProt Q53GL7).
T2 sequence (Q53GL7 whole entry): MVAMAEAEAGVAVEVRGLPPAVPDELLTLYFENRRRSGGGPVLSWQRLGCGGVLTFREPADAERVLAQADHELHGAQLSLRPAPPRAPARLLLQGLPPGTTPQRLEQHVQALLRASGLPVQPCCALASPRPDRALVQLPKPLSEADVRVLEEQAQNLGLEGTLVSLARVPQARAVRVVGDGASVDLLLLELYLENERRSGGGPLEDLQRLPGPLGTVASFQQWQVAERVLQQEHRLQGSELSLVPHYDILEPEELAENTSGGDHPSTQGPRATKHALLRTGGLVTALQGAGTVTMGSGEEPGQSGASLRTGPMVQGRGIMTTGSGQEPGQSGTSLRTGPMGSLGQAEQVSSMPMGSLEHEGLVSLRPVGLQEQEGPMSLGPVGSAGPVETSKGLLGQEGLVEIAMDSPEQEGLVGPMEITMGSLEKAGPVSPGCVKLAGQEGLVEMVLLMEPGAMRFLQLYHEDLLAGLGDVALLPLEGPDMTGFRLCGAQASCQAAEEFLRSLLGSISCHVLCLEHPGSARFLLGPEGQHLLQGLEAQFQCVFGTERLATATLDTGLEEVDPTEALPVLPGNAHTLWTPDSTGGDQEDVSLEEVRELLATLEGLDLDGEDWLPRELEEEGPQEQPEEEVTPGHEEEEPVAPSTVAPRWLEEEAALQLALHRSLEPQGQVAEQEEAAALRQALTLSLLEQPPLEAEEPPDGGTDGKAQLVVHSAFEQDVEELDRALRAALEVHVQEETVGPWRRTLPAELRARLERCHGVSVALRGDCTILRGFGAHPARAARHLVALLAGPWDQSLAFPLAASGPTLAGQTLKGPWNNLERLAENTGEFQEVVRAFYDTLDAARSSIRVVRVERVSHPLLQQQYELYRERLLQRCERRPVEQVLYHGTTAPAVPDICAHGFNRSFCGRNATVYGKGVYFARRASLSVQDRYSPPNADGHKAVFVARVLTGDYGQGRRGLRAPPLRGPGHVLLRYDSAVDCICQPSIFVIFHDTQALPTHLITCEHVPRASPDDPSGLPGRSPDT
In words: Inhibition of human N-terminal FLAG-tagged/C-terminal Strep-tagged PARP10 (805 to 1025 residues) expressed in baculovirus infected Sf9 insect cells using biotinylated substrate by chemiluminescence method.

Data set [5] deals with T3, Protein mono-ADP-ribosyltransferase PARP11 (Homo sapiens, UniProt Q9NR21).
T3 sequence (Q9NR21 whole entry): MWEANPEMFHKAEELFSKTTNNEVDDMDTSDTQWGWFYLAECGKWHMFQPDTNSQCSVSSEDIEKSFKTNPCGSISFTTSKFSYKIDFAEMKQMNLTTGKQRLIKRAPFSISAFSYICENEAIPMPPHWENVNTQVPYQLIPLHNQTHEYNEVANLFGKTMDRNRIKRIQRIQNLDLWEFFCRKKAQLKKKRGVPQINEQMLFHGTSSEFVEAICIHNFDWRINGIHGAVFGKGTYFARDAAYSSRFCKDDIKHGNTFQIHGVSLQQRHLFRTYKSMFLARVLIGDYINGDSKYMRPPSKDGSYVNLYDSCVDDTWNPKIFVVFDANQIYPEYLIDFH
As to the kind of experiment: Inhibition of human N-terminal GST-tagged PARP11 (8 to 338 residues) expressed in baculovirus infected Sf9 insect cells using biotinylated substrate by chemiluminescence method.

Data set [6] can be described thus: Intrinsic clearance in human hepatocytes assessed per million cells. The class given is ADME, cell-based, Hepatocyte. The following applies: read-out: CLH.
Data set [7] in a line: Apparent permeability across apical to basolateral side in human Caco2 cells at 1 uM after 2 hrs by LC-MS/MS analysis. The class given is ADME, cell-based. To be noted: Caco-2.
Data set [8] is described as follows: Time at which free-drug concentration exceeds in vitro cellular EC50 for inhibition of tankyrase 1/2 in human DLD1 cells assessed as increase in axin2 accumulation in mouse at 30 mg/kg, po. The class given is organism-based. The following applies: in vivo.
Data set [9] deals with Mus musculus. In words: Ex vivo inhibition of tankyrase 1/2 in human DLD1 cells xenografted in immunodeficient athymic nude mouse assessed as increase in tankyrase level in tumor lysates at 10 mg/kg, po administered via gavage by luminex based bead assay. The format is functional, organism-based. To be noted: Neoplasm, Lysate, TDE = time-dependent effect. (In general: Xenograft models place foreign cells or tissue in a host animal.)

In data set [10] the test system is Mus musculus. As to the kind of experiment: Ex vivo inhibition of tankyrase 1/2 in human DLD1 cells xenografted in immunodeficient athymic nude mouse assessed as increase in axin-2 level in tumor lysates at 10 to 90 mg/kg, po administered via gavage by luminex based bead assay. The following applies: Neoplasm, Lysate, TDE = time-dependent effect. The format is functional, organism-based.

Poly [ADP-ribose] polymerase 2, sequence (Q9UGN5 whole entry, the tested form may be a part): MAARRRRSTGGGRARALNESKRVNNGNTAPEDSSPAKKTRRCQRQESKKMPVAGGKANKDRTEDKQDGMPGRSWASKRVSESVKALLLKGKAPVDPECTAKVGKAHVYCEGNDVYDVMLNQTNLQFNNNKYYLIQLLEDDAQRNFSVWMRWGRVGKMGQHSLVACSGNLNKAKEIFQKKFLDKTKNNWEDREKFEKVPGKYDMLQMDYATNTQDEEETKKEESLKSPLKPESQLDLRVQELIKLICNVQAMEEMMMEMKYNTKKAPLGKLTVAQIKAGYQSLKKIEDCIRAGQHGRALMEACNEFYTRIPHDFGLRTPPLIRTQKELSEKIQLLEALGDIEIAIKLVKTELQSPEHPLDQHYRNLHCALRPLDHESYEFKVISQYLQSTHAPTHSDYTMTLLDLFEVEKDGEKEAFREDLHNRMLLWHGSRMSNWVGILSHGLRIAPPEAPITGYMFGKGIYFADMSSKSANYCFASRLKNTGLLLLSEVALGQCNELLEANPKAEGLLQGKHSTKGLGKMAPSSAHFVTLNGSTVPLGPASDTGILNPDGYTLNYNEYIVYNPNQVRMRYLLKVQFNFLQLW

`CC(C)(O)c1ccc(-c2nc3c(F)cc(F)cc3c(=O)[nH]2)cc1`: the microsomal CLint in data set [1] was 22 µL/min/mg. For the same compound, the IC50 was 1 µM in data set [2], over 10 µM in data set [3], over 10 µM in data set [4] and over 10 µM in data set [5]. For the same compound, the hepatocyte CLint in data set [6] was found to be 1.25 µL/min/1e6 cells. In addition, in data set [7], the apparent permeability from apical to basolateral (Papp A→B) at 2 h, 1 µM is 40 ×10⁻⁶ cm/s. Further, the “T>fEC50” value in data set [8] was “>= 20 hr”. For the same compound, the inhibition entry with Mus musculus [9] and in the data set with Mus musculus [10] was “Tde” each time.

Source of the values: ChEMBL document CHEMBL4321794, “Discovery and Optimization of 2-Arylquinazolin-4-ones into a Potent and Selective Tankyrase Inhibitor Modulating Wnt Pathway Activity” (J Med Chem, 2019).
